Assay results reported in ChEMBL document CHEMBL4680193, “Isoindoline scaffold-based dual inhibitors of HDAC6 and HSP90 suppressing the growth of lung cancer in vitro and in vivo” (Eur J Med Chem, 2020).
Active and inactive are the calls of the source. No cut-off for these calls is given here.

Tests used:
Histone deacetylase = format: tissue-based, Homo sapiens; conditions: hela
A549 = assay: Growth inhibition of human A549 cells incubated for 48 hrs by SRB assay; format: functional
NCI-H1975 [1] = assay: cells; format: functional; conditions: Homo sapiens, time 48 hrs
NCI-H1975 [2] = assay: Antitumor activity against human NCI-H1975 cells xenografted in BALB/c mouse assessed as reduction in tumor growth at 20 mg/kg, ip administered for 2 weeks and measured after 2 week relative to control; format: functional; conditions: 336 h, read-out: TGI
Homo sapiens [3] = organism: Homo sapiens; assay: Selectivity index, ratio of IC50 for recombinant human HDAC3 to IC50 for recombinant human HDAC6
[4] = target: Heat shock protein HSP 90-alpha (Homo sapiens, UniProt P07900); assay: Inhibition of HSP90a (unknown origin)
Homo sapiens [5] = organism: Homo sapiens; assay: Selectivity index, ratio of IC50 for recombinant human C-terminal FLAG-His-tagged HDAC1 (1 to 482 residues) expressed in Sf21 cells to IC50 for recombinant human HDAC6
Histone deacetylase 3 = Histone deacetylase 3 (Homo sapiens, UniProt O15379)
Histone deacetylase 1 = Histone deacetylase 1 (Homo sapiens, UniProt Q13547); assay: Inhibition of recombinant human C-terminal FLAG-His-tagged HDAC1 (1 to 482 residues) expressed in Sf21 cells using RHK-K(Ac)-AMC as substrate incubated for 60 mins by fluorimetry analysis
[6] = target: T1, Protein deacetylase HDAC6 (Homo sapiens, UniProt Q9UBN7); assay: Inhibition of recombinant human HDAC6 using RHK-K(Ac)-AMC as substrate by fluorescence based assay
T1 sequence (Q9UBN7 whole entry): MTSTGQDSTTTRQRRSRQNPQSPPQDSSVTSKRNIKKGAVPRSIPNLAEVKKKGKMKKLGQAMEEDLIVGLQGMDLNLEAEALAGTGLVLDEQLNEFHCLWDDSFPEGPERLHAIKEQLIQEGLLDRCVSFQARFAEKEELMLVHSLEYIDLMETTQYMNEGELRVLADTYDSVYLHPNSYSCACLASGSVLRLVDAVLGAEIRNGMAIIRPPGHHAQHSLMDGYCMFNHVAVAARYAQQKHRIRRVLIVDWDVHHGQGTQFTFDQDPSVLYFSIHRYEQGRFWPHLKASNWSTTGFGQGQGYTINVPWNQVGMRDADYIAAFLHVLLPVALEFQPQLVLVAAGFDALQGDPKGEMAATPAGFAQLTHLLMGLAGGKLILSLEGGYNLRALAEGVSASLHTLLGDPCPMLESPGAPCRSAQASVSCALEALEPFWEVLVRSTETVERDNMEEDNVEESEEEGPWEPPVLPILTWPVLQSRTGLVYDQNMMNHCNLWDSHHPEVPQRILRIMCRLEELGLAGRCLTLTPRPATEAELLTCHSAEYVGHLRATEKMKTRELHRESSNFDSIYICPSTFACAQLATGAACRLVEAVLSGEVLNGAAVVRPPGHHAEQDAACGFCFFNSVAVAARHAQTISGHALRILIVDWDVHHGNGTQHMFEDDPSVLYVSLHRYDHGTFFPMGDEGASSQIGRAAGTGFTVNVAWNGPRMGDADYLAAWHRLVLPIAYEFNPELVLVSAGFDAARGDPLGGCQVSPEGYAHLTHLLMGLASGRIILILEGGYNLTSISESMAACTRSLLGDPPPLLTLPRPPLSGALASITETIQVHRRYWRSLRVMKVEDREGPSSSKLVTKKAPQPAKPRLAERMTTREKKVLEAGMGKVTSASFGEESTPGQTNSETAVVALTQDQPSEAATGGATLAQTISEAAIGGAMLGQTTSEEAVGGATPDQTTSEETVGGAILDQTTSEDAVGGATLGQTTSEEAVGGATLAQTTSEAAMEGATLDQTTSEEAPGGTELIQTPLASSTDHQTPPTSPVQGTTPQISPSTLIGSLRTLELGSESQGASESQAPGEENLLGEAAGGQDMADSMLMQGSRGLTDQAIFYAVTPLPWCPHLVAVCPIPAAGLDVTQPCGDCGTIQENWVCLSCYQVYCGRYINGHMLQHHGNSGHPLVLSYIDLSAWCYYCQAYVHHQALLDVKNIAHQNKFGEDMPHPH

Homo sapiens [7] = organism: Homo sapiens; assay: Selectivity index, ratio of IC50 for recombinant human HDAC8 to IC50 for recombinant human HDAC6
Histone deacetylase 8 = target: T2, Histone deacetylase 8 (Homo sapiens, UniProt Q9BY41); assay: Inhibition of recombinant human HDAC8 using RHK-K(Ac)-AMC as substrate by fluorescence based assay
T2 sequence (Q9BY41 whole entry): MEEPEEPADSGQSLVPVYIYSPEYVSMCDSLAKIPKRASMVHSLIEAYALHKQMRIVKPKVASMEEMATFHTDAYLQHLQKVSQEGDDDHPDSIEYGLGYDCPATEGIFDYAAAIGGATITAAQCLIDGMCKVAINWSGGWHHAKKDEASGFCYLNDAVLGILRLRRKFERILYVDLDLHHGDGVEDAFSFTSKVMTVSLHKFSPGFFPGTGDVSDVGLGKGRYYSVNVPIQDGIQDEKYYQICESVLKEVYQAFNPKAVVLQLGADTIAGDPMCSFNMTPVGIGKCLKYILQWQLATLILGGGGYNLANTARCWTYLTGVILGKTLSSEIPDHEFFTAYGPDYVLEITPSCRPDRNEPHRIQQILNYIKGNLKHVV

[8] = target: T3, Heat shock protein HSP90 (Homo sapiens) (UniProt P07900+P08238); assay: Inhibition of HSP90 in human NCI-H1975 cells assessed as decrease in Akt Ser473 phosphorylation at 1 to 3 uM measured after 24 hrs by Western blot analysis; format: cell-based; conditions: dose 1-3 µM
[9] = target: T3, Heat shock protein HSP90 (Homo sapiens); assay: Inhibition of HSP90 in human NCI-H1975 cells assessed as decrease in STAT3 Tyr705 phosphorylation at 1 to 3 uM measured after 24 hrs by Western blot analysis; format: cell-based; conditions: dose 1-3 µM

Chain of Histone deacetylase 1 (Q13547 whole entry, the tested form may be a part): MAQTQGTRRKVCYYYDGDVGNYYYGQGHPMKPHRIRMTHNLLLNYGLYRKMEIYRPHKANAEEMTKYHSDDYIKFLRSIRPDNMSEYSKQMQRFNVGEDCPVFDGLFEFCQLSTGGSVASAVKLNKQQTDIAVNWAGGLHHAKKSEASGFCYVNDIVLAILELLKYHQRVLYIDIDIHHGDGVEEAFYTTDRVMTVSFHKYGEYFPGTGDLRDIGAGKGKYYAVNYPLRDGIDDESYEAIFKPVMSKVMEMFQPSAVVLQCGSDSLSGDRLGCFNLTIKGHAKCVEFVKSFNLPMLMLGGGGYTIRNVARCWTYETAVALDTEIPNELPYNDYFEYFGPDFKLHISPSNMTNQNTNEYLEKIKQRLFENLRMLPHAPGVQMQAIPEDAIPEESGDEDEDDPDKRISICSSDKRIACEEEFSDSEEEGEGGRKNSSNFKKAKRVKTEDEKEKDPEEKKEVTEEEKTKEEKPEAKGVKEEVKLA
Chain of Histone deacetylase 3 (O15379 whole entry, the tested form may be a part): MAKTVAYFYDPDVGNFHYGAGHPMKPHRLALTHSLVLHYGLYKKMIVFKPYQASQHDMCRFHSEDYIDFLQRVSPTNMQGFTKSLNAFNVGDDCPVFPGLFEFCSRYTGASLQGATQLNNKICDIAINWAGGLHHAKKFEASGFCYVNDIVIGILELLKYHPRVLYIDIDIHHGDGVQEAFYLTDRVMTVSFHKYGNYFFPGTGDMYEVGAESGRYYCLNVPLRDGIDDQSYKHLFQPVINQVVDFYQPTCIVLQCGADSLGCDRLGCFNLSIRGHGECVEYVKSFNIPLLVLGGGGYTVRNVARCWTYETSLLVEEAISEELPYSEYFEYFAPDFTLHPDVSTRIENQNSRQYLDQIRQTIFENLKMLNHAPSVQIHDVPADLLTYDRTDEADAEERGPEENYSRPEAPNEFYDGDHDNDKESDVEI

IC50 (Histone deacetylase) [nM] | GI50 (A549; Homo sapiens, A549) [nM] | GI50 (NCI-H1975 [1]) [nM] | Ratio IC50 (Homo sapiens [3]) | IC50 [4] [nM] | IC50 (Histone deacetylase 3) [nM] | IC50 (Histone deacetylase 1) [µM] | IC50 [6] [nM] | Ratio IC50 (Homo sapiens [7]) | IC50 (Histone deacetylase 8) [nM] | inhibition [8] | inhibition [9] | Structure (SMILES) | inhibition in vivo at 20 mg/kg (NCI-H1975 [2]) [%] | Ratio IC50 (Homo sapiens [5]) | GI50 (A549) [nM]
> 1000 | 870 | 1640 | 8.5 | 109 | 2810 | 6.88 | 330 | 22.5 | 7420 | – | – | CC(C)c1cc(C(=O)N2Cc3ccc(NC(=O)CCCCC(=O)NO)cc3C2)c(O)cc1O | – | 20.8 | –
198.9 | 235000 | 1070 | 233 | 422 | 494 | 1.07 | 2.12 | > 4720 | > 10000 | – | – | CC(C)c1cc(C(=O)N2Cc3ccc(NC(=O)CCCCCCCC(=O)NO)cc3C2)c(O)cc1O | – | 507 | –
521.4 | 2220 | 680 | 234 | 43.9 | 2210 | 3.81 | 9.44 | 213 | 2010 | – | – | CC(C)c1cc(C(=O)N2Cc3ccc(NC(=O)CCCCCC(=O)NO)cc3C2)c(O)cc1O | – | 404 | –
1683 | 2920 | 434000 | 175 | 43.9 | 388 | 0.554 | 2.21 | 683 | 1510 | – | – | CC(C)c1cc(C(=O)N2Cc3ccc(NC(=O)CCCCCCC(=O)NO)cc3C2)c(O)cc1O | – | 250 | –
> 1000 | > 10000 | > 10000 | 64.3 | 136 | 4410 | 7.43 | 68.6 | – | – | – | – | CC(C)c1cc(C(=O)N2Cc3ccc(NC(=O)CCCC(=O)NO)cc3C2)c(O)cc1O | – | 108 | –
> 1000 | 830 | 39000 | – | 123 | – | – | > 10000 | – | 7320 | – | – | CC(C)c1cc(C(=O)N2Cc3ccc(NC(=O)CCC(=O)NO)cc3C2)c(O)cc1O | – | – | –

Second part, the compound before the results:

Structure (SMILES) | IC50 (Histone deacetylase) [nM] | GI50 (A549; Homo sapiens, A549) [nM] | GI50 (NCI-H1975 [1]) [nM] | Ratio IC50 (Homo sapiens [3]) | IC50 [4] [nM] | IC50 (Histone deacetylase 3) [nM] | IC50 (Histone deacetylase 1) [µM] | IC50 [6] [nM] | Ratio IC50 (Homo sapiens [7]) | IC50 (Histone deacetylase 8) [nM] | inhibition [8] | inhibition [9] | inhibition in vivo at 20 mg/kg (NCI-H1975 [2]) [%] | Ratio IC50 (Homo sapiens [5]) | GI50 (A549) [nM]
COc1c(C)cnc(Cn2cnc3c(Cl)nc(N)nc32)c1C [BIIB021] | > 1000 | 330 | 200 | – | – | – | – | – | – | – | – | – | – | – | –
CN(C)C/C=C/C(=O)Nc1cc2c(Nc3ccc(F)c(Cl)c3)ncnc2cc1O[C@H]1CCOC1 [AFATINIB] | – | – | – | – | – | – | – | – | – | – | – | – | 63.8 | – | –
CC(C)c1cc(C(=O)N2Cc3ccc(/C=C/C(=O)NO)cc3C2)c(O)cc1O | > 1000 | 2740 | 32000 | 13.2 | 104 | 3990 | 3.15 | 303 | 2.2 | 675 | – | – | – | 10.4 | –
CC(C)c1cc(C(=O)N2Cc3ccc(NCc4ccc(CN5CCN(C)CC5)cc4)cc3C2)c(O)cc1O | – | – | – | – | – | – | – | – | – | – | Active | Active | – | – | –
O=C(CCCCCCC(=O)Nc1ccccc1)NO [VORINOSTAT] | – | – | – | – | > 1000 | – | – | – | – | – | – | – | – | – | 1020
CC(C)c1cc(C(=O)N2Cc3ccc(NCc4ccc(C(=O)NO)cc4)cc3C2)c(O)cc1O | > 1000 | 370 | 130 | 296 | 66 | 9850 | > 10 | 33.3 | 12.6 | 420 | – | – | – | > 300 | –
